Reference: article PMC7932537, “Quantitative profiling of protease specificity” (PLoS Computational Biology, 2021)

Assays:
MMP-2 [1] = test: Substrate phage display with NGS: relative probability (RP) of P3-P1' tetramer clusters; format: biochemical, human; conditions: MMP2;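 also: ratio of tetramer probability after protease selection to that in naive phage library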
MMP-9 = MMP-9 (Homo sapiens, UniProt P14780); test: K(obs) of individual phage substrates (set of 1369); format: biochemical; conditions: MMP9
Sequence of MMP-9 (P14780 94-707): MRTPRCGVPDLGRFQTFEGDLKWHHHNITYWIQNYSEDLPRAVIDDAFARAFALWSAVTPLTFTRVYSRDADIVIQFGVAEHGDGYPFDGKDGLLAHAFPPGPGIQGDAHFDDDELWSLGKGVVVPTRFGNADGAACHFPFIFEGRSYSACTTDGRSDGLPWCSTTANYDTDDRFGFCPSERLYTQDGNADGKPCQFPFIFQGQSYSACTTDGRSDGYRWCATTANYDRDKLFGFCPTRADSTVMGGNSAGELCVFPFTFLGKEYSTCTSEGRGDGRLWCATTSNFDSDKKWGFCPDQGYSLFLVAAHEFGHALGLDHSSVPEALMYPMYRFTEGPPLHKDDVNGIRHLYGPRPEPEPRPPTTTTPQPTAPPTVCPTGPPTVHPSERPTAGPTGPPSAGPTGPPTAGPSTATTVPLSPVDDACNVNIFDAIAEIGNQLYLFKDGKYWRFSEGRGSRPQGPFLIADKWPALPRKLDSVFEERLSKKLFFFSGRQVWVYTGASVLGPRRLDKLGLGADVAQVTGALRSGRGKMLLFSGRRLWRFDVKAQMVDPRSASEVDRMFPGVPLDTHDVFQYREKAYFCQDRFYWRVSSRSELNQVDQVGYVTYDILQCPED

MMP-2 [2] = biological target: T1, MMP-2 (Homo sapiens, UniProt P08253); test: as above; format: biochemical; conditions: MMP2
T1 sequence (P08253 110-660): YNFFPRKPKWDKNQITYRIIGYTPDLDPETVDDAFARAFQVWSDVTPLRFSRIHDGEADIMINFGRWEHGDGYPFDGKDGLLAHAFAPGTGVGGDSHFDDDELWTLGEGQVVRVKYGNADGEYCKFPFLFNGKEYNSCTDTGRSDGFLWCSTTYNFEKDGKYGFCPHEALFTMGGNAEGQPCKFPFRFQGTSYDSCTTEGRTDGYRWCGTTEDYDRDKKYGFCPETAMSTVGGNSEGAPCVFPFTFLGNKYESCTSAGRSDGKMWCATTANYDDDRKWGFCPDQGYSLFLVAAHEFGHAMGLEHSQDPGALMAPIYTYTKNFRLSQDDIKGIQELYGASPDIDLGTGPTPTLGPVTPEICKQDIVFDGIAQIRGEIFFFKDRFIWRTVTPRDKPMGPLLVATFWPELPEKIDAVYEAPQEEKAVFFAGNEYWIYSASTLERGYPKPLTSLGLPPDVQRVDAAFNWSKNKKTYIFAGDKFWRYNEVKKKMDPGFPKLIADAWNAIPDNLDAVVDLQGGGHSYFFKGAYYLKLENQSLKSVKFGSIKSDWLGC

[3] = RP of the P3-P1' tetramer contained in the substrate
[4] = individual phage substrate of the set of 1369 peptides, dash in the sequence marks the cleavage position
[5] = individual phage substrate of the set of 1369 peptides, cleavage position marked by '-'
[6] = RP of the P3-P1' tetramer contained in the substrate (substrate phage display with NGS)
[7] = individual phage substrates, set of 1369 peptides, hyphen in sequence marks cleavage position
[8] = individual phage substrates, set of 1369 peptides, cleavage position marked by hyphen in sequence

Kobs (MMP-9; [4]) [M⁻¹ s⁻¹] | Kobs (MMP-2 [2]; [5]) [M⁻¹ s⁻¹] | Kobs (MMP-9; [7]) [M⁻¹ s⁻¹] | Kobs (MMP-2 [2]; [8]) [M⁻¹ s⁻¹] | Substance | relative probability (RP) (MMP-2 [1]; [3]) | relative probability (RP) (MMP-2 [1]; [6])
7015.91 | 2218.08 | – | – | GYPWS-LSTAS | 28.5684 | –
– | – | 7386.83 | 12792.1 | GNVRN-LITAS | – | 29.2567
4763.33 | 5461.43 | – | – | YVPTG-LTASG | 33.1098 | –
12792.1 | 4205.91 | – | – | QGPWH-ITASG | 10.946 | –
– | – | 171.876 | 1561.44 | SIHLA-LTASG | – | 11.3603
113.394 | 2157.02 | – | – | ERSLA-WTASG | 18.2943 | –
– | – | 2687.73 | 1154.21 | TVSYA-LTASG | – | 4.7967
1763.55 | 142.481 | – | – | GFPLM-YATAS | 17.2027 | –
836.403 | 451.441 | – | – | GRMLH-LRTAS | 8.417 | –
8941.32 | 12792.1 | – | – | LNPAF-LTASG | 32.4224 | –
0 | 0 | – | – | SGTLN-LYNTA | 2.764 | –
– | – | 261.974 | 619.843 | RTMLH-MTASG | – | 4.713
12792.1 | 12792.1 | – | – | SGPSS-LFATA | 35.4913 | –
12792.1 | 8321.48 | – | – | SGPMA-LSRTA | 34.1737 | –
– | – | 201.585 | 0 | RKVRN-WTASG | – | 17.7682
– | – | 0 | 0 | GSGWA-LKKVT | – | 0.09159
142.481 | 1112.44 | – | – | SGAHG-LLTTA | 23.6336 | –
12792.1 | 12792.1 | – | – | HRPRS-LTASG | 33.3704 | –
– | – | 0 | 0 | SRYLP-MTASG | – | 0.4306
– | – | 386.839 | 6688.74 | NTSAW-LTASG | – | 18.9346
– | – | 6396.07 | 10866.7 | FPVLS-LTASG | – | 10.8506
– | – | 1660.66 | 386.839 | LPYFS-MTASG | – | 0.06612
– | – | 9740.44 | 3964.21 | TIPFY-MTASG | – | 8.184

Kobs (MMP-9; [4]) [M⁻¹ s⁻¹] | Kobs (MMP-2 [2]; [5]) [M⁻¹ s⁻¹] | Kobs (MMP-9; [7]) [M⁻¹ s⁻¹] | Kobs (MMP-2 [2]; [8]) [M⁻¹ s⁻¹] | Substance | relative probability (RP) (MMP-2 [1]; [3]) | relative probability (RP) (MMP-2 [1]; [6])
– | – | 0 | 0 | SGFLH-WRSTA | – | 0.05793
1239.69 | 726.013 | – | – | ERSLN-LTASG | 3.302 | –
951.362 | 0 | – | – | GVLRM-LSTAS | 9.0498 | –
0 | 201.585 | – | – | GAFRH-LRTAS | 3.942 | –
– | – | 12792.1 | 10866.7 | YKPAG-LTASG | – | 36.0156
10866.7 | 12792.1 | – | – | HAPLN-FTASG | 28.3679 | –
– | – | 8321.48 | 8321.48 | VRVLH-LTASG | – | 19.5348
12792.1 | 12792.1 | – | – | RIPRF-LTASG | 28.4443 | –
84.609 | 8321.48 | – | – | RTASH-LTASG | 19.8208 | –
– | – | 3165.09 | 3438.54 | RDVLA-LTASG | – | 13.5229
12792.1 | 1660.66 | – | – | YSPMD-YTASG | 10.9087 | –
– | – | 12792.1 | 12792.1 | SGVLG-LIGTA | – | 24.4128
0 | 4082.43 | – | – | GGYAG-LRTAS | 20.9112 | –
1660.66 | 3253.29 | – | – | GQARG-LQTAS | 25.9476 | –
– | – | 2476.66 | 2280.5 | SGYRS-LYSTA | – | 1.506
12792.1 | 7815.03 | – | – | RLPVH-YTASG | 23.3589 | –
– | – | 27.918 | 0 | GISFA-LTTAS | – | 0.5631
– | – | 9740.44 | 12792.1 | VFVSN-LTASG | – | 33.8801
– | – | 0 | 517.582 | MNWES-LTASG | – | 0.6249
– | – | 2218.08 | 10866.7 | WKVSS-LTASG | – | 29.0891
– | – | 4922.1 | 4205.91 | VRAHS-LTASG | – | 21.0212
– | – | 0 | 0 | GLPDF-LTASG | – | 1.02
– | – | 0 | 9740.44 | TSLAN-LTASG | – | 34.4823

Kobs (MMP-9; [4]) [M⁻¹ s⁻¹] | Kobs (MMP-2 [2]; [5]) [M⁻¹ s⁻¹] | Kobs (MMP-9; [7]) [M⁻¹ s⁻¹] | Kobs (MMP-2 [2]; [8]) [M⁻¹ s⁻¹] | Substance | relative probability (RP) (MMP-2 [1]; [3]) | relative probability (RP) (MMP-2 [1]; [6])
– | – | 990.764 | 12792.1 | LLYAS-LTASG | – | 26.9916
– | – | 8941.32 | 4205.91 | AHVFA-LTASG | – | 11.8827
12792.1 | 9740.44 | – | – | SGVYW-LRSTA | 16.4375 | –
– | – | 6688.74 | 4335.13 | GCPLS-LYTAS | – | 33.5282
12792.1 | 12792.1 | – | – | PYPVP-FTASG | 31.1155 | –
12792.1 | 12792.1 | – | – | SLVRF-LTASG | 15.0438 | –
– | – | 0 | 0 | GSGFS-LRTWT | – | 0.09752
– | – | 0 | 1030.73 | PKFSH-MTASG | – | 11.0227
12792.1 | 12792.1 | – | – | SGVRA-IIATA | 26.2338 | –
484.315 | 1239.69 | – | – | FPGRH-LTASG | 3.598 | –
12792.1 | 2837.92 | – | – | FMPRN-TASGA | 2.5391 | –
4470.66 | 4205.91 | – | – | SNLNS-TASGA | 0.4784 | –
– | – | 1112.44 | 2916.17 | RLLLN-MTASG | – | 13.7728
– | – | 113.394 | 12792.1 | RMLAQ-LTASG | – | 25.841
– | – | 7386.83 | 9740.44 | SGPSM-LTATA | – | 33.0235
12792.1 | 7386.83 | – | – | RPPLA-FTASG | 31.4142 | –
– | – | 0 | 0 | GGSGM-LKLQP | – | 1.312
6688.74 | 3079.62 | – | – | KKWRG-LTASG | 23.375 | –
0 | 0 | – | – | KFWFN-LTASG | 0 | –
– | – | 12792.1 | 9740.44 | SGARS-LKGTA | – | 17.186
0 | 0 | – | – | GVHFH-LITAS | 0.09413 | –
– | – | 12792.1 | 12792.1 | SIAFA-LTASG | – | 17.8812
– | – | 0 | 1239.69 | GKPAS-LDTAS | – | 36.4285

Substance | Kobs (MMP-9; [4]) [M⁻¹ s⁻¹] | Kobs (MMP-2 [2]; [5]) [M⁻¹ s⁻¹] | Kobs (MMP-9; [7]) [M⁻¹ s⁻¹] | Kobs (MMP-2 [2]; [8]) [M⁻¹ s⁻¹] | relative probability (RP) (MMP-2 [1]; [3]) | relative probability (RP) (MMP-2 [1]; [6])
FSARS-LTASG | – | – | 4613.14 | 8941.32 | – | 17.186
